experiment: Human HepG2 cell viability assay in 384 well format; assay type: toxicity, cell-based; design: dose 125 nL, time 70.5 hour; cytotoxicity at 70.5 h: concentration not given beside the values; conditions: HepG2 cells, read-out: Inhibition

Row | SMILES | cytotoxicity at 70.5 h [%]
1 | Cc1ccc(CN(C(=O)C(C)NC(N)=O)C2CC2)cc1C (stereo not drawn) | 25.3
2 | Cc1cccc(CN2C[C@@H]3CN(C(=O)c4cnccn4)C[C@@H]3C2=O)c1 | -2.3
3 | O=C(Cc1cn2ccccc2n1)N1CCCC(n2ccnc2)C1 (stereo not drawn) | -3.99
4 | CNC(=O)C(C)CNC(=O)c1coc(COc2cccc(F)c2F)n1 (stereo not drawn) | -14.8
5 | C[C@H]1C[C@@H]2CCN(C(=O)c3cccn3C)C[C@H]2O1 | -12.7
6 | CCc1nccn1C1CCCN(C(=O)c2cncnc2C)C1 (stereo not drawn) | 16
7 | Cc1ccccc1CC(=O)N1C[C@@H](O)[C@H](N2CCC(F)(F)CC2)C1 | -7.85
8 | COc1cc(-c2cnnc(NCC3CC3)n2)cc(OC)c1OC | 5.52
9 | COCC1CN(C(=O)CC2=CCCCC2)Cc2nnn(CC3CC3)c21 (stereo not drawn) | -12
10 | CC(=O)N[C@@H]1Cc2ccccc2[C@H]1Nc1nnc(C2CC2)o1 | -7.5
11 | CCN(C)C[C@@H]1CN(C(=O)NC2CCCCC2)C[C@@H]1CO | -10.1
12 | Cc1nccn1CCC1CCCCN1C(=O)c1ccc2nonc2c1 (stereo not drawn) | -1.05
13 | CN(Cc1c[nH]nc1-c1ccc(F)cc1F)Cc1nccn1C | 21.7
14 | O=C(CCN1CCCC1C1CCCCC1)N1CCc2sccc2C1 (stereo not drawn) | 2.92
15 | CC1c2ncc(Cn3cncn3)n2CCN1CC1CCOCC1 (stereo not drawn) | -5.6
16 | CC1(C(=O)N2CCOCC2)CN(Cc2ncc[nH]2)CCO1 (stereo not drawn) | 11.7
17 | COC(=O)c1sc2nc3c(c(C(F)(F)F)c2c1N)CN(C(C)=O)CC3 | 5.62
18 | COc1ccc(CNC(=O)NC(C)Cn2cccn2)cc1O (stereo not drawn) | -16.1
19 | CN(Cc1cccnc1)[C@@H]1CN(C(=O)NC2CC2)[C@@H]2CCCO[C@H]12 | -6.43
20 | CCN(CC)C(=O)C1CCCN1C(=O)c1cccc(-n2cnnn2)c1 (stereo not drawn) | -4.16
21 | O=C(Nc1cccc(OCc2cccc(F)c2)c1)C1COCCO1 (stereo not drawn) | -0.586
22 | Cc1cc(NC(=O)CN2CCc3c(nc(C(C)C)n3C)C2)n(C)n1 | -16.7
23 | CCOCCNC(=O)c1cc(COc2cncc(Cl)c2)on1 | -0.86

Row | SMILES | cytotoxicity at 70.5 h [%]
24 | Cc1cccc(OCCC(=O)N2CCCN(CC(N)=O)CC2)c1C | -12
25 | COc1ccc(NC(=O)Cn2nc(C)c(C)cc2=O)cc1OC | 12.7
26 | Cc1ccc(S(=O)(=O)NC(=O)CCc2ccco2)cc1N(C)C | 20.1
27 | CC(C)N(Cc1ccccn1)C(=O)CN(C)C(=O)c1cccs1 | -22.7
28 | CNC(=O)NCC(CO)Cc1cccc(OC(F)(F)F)c1 (stereo not drawn) | -8.42
29 | CN1CCC(N2CCN(C(C(=O)O)c3cccc4c3OCC4)CC2)CC1 (stereo not drawn) | 2.04
30 | CNC(=O)c1nc2c(s1)CCN(C(=O)c1cccnc1)CC2 | -0.11
31 | O=C(O)c1cc2c(nc1-c1ccsc1)CCN(C1CCOC1)CC2 (stereo not drawn) | -12.7
32 | Cc1nc(C)n(C2CCCN(C(=O)c3ccc(OC(C)C)nc3)C2)n1 (stereo not drawn) | -0.207
33 | O=C(Cn1cccn1)N(CCO)CCSc1ccc(Cl)cc1 | -11.6
34 | COc1ccccc1NC(=O)CCNC(=O)c1ccoc1 | 0.887
35 | CC(=O)c1c(C)nn(S(=O)(=O)c2ccc(F)cc2)c1C | 1.95
36 | Cc1ccc(-c2ncc(C(=O)NCCNC(=O)C(C)C)s2)c(C)c1 | -8.72
37 | Cc1nccn1C1(C(=O)O)CCN(Cc2ccc3occc3c2)CC1 | -7.56
38 | Cc1c(F)cccc1NC(=O)N(C(C)CS(C)(=O)=O)C1CC1 (stereo not drawn) | -4.32
39 | c1cc2c(c(-c3cc(N4CCOCC4)ncn3)c1)CCNC2 | -7.28
40 | CC(=O)N1CCN(C(=O)c2cc(C(C)C)no2)[C@H]2CS(=O)(=O)C[C@H]21 | -3.64
41 | COc1ccc(OCCNCCn2cccn2)cc1 | 3.51
42 | COCCNC(=O)Nc1ccc(-c2nc(C(C)C)no2)cc1 | -6.61
43 | CCC(C)(CC(=O)O)NC(=O)Cc1ccccc1F (stereo not drawn) | 26.6
44 | Cc1ncccc1Oc1ncnc(N2CCC3(CCCO3)CC2)c1C | -7.69
45 | CC(C)(C)c1ncc(C(=O)NCc2ccccc2CN2CCCC2)s1 | -6.15
46 | CC(=O)N1CCOC2(CCCN(C(=O)c3ccc(Cl)cc3)C2)C1 (stereo not drawn) | -15.6

Row | SMILES | cytotoxicity at 70.5 h [%]
47 | COc1cccc(NC(=O)CC2Cn3ncnc3NC2=O)c1 (stereo not drawn) | -10.6
48 | COc1ccc(C(=O)O)c(OCC(=O)NC(C)c2ccc(F)cc2)c1 (stereo not drawn) | -6.92
49 | Cc1ccnn1-c1ccc(C(=O)N2CCCC(n3ccnc3)C2)cc1 (stereo not drawn) | -7.39
50 | CCOCc1cncc2c1CCN(S(=O)(=O)c1ccc(C)cc1)C2 | -2.29
51 | Cc1cc(N2CCC(Cc3ncccn3)C2)ncn1 (stereo not drawn) | -6.02
52 | COCC1CC2(CCN(Cc3ccncc3)CC2)CN1C(C)C (stereo not drawn) | -7.56
53 | CCOc1cc(NC(=O)N2CCC3(CCOCC3)C2)ccc1C | -7.4
54 | CCN(C(=O)CN1CCCC1Cc1ccccc1)c1ccccc1 (stereo not drawn) | 8.48
55 | Cc1ncc2c(n1)CN(Cc1nc3c(F)cccc3[nH]1)CC2 | -2.01
56 | Cc1cc(CN2C[C@@H]3COC[C@@H](C(=O)N4CCCCO4)[C@@H]3C2)no1 | 20.1
57 | Cc1cc(CN2CCN(C(=O)Nc3cccnc3)CC2)on1 | -7.67
58 | CC(C)CCN1CCC2(CC1)CN(C(=O)c1cnccn1)CCO2 | 1.9
59 | Cc1cc(OC(F)F)c(C(=O)N2CCC(CN(C)C)CC2)s1 | -5.68
60 | Cn1c(C(N)=O)cc2c1CN(C(=O)C1CCCN(C3CCCC3)C1)CC2 (stereo not drawn) | -7.9
61 | Cc1cccnc1CN(C)c1ncnc2[nH]ccc12 | -6.05
62 | O=C(c1cnc(NCCC2CCCO2)c(Cl)c1)N1CCCCC1 (stereo not drawn) | -10
63 | Cc1nc(C2CCCN2CCCS(=O)(=O)c2ccccc2)no1 (stereo not drawn) | -3.41
64 | O=C(c1ncccn1)N1C[C@@H]2COC[C@]2(COCc2cccnc2)C1 | -5.13
65 | CC(C)C(C)(C#N)NC(=O)Cn1nnc(-c2cc3ccccc3o2)n1 (stereo not drawn) | 18.2
66 | CCc1ccccc1OC1CN(C(=O)c2sccc2N)C1 | -3.46
67 | COCC(=O)Nc1ccc([C@@H](O)[C@H]2COCC(=O)N2C)cc1 | -1.45
68 | COc1cccc(OCC2CCCN(C(=O)c3cc(C)n[nH]3)C2)c1 (stereo not drawn) | 4.2
69 | COc1cccc(F)c1C(C)NC(=O)NCCc1ccc(C)nc1 (stereo not drawn) | 29.6

Row | SMILES | cytotoxicity at 70.5 h [%]
70 | Cc1nc(N(C)C)nc2c1COCC21CCN(C(=O)NC(C)C)C1 (stereo not drawn) | 4.31
71 | NC(=O)c1ccc(OCC(=O)NS(=O)(=O)c2ccc3c(c2)CCC3)cc1 | -2.69
72 | OC1(CNCc2ccc(F)c(C(F)(F)F)c2)CCOC1 (stereo not drawn) | -2.64
73 | Cc1n[nH]c(C)c1Sc1ccccc1NC(=O)N1CCCC(C(N)=O)C1 (stereo not drawn) | 5.35
74 | Cc1ccnc(NC(=O)C2(n3cnnn3)CCCCC2)c1 | -23.1
75 | CCc1noc(CN2CCCC2C(=O)OCc2ccccc2)n1 (stereo not drawn) | -16.5
76 | CCc1cccc(NS(=O)(=O)c2cc3c(c(C(=O)O)c2)OCCO3)c1 | 4.16
77 | N#Cc1cc(F)ccc1CN1CCCCC1Cn1cccn1 (stereo not drawn) | -1.56
78 | Cc1ccnc(N2C[C@@H]3CC[C@H](C2)N(CC2CCC2)C3=O)n1 | 9.42
79 | CS(=O)(=O)N1CCCC(c2cccc(-c3ccccc3F)n2)C1 (stereo not drawn) | -7.63
80 | CC(=O)Nc1cccc2c1ccn2CC(=O)Nc1ncc[nH]1 | -5.41
81 | O=C(N1CCCC1)N1CCC2(CC1)CN(c1cccnc1)C(=O)CO2 | -6.88
82 | CC(C)(C)c1nnc2n1C(C(=O)N1CCN(c3ncccn3)CC1)CC2 (stereo not drawn) | -11.2
83 | COCC1CC2(CCN(C(=O)C3CCSCC3)CC2)CO1 (stereo not drawn) | 8.61
84 | Cc1cccc(CN2CCCC(c3nccs3)C2)n1 (stereo not drawn) | -1.28
85 | O=C(O)c1ccc(CN2CCC(c3ccnc4ccnn34)CC2)cc1 | -12
86 | COCc1nc(N2CCC(CCO)CC2)c2cnn(C)c2n1 | 2.73
87 | Cc1n[nH]c(C)c1C1CCCN1C(=O)Cc1cccc(F)c1 (stereo not drawn) | -19.6
88 | CC(C#N)CSc1ccccc1NCC(=O)NC(C1CC1)C1CC1 (stereo not drawn) | 8.68
89 | CCn1cc(NC(=O)NCC(C)N2CCCC2)cn1 (stereo not drawn) | 22.1
90 | O=S(=O)(CCSc1nccn1C1CC1)c1ccccc1 | -5.9
91 | CN(C)Cc1cc(=O)n2c(n1)CN(C(=O)Cc1ccsc1)CCC2 | -12.5
92 | CN(C)CCN(Cc1ccccc1)C(=O)CN1CCCNC1=O | -0.477

Row | SMILES | cytotoxicity at 70.5 h [%]
93 | O=c1[nH]ncc(NCCOc2cccc(Br)c2)c1Cl | -5.68
94 | CN(Cc1cccc(O)c1)CC1CCCN(CCc2ccc(Cl)cc2)C1 (stereo not drawn) | 10.2
95 | O=C1CC[C@H]2CN(Cc3cccnc3)CC[C@H]2N1CCc1c[nH]cn1 | -1.83
96 | COc1ccc(S(=O)(=O)NCC(C)(O)c2cccs2)cc1Cl (stereo not drawn) | -10.5
97 | CNc1ccc(CC2CCCN(C(=O)c3cncnc3C)C2)nn1 (stereo not drawn) | -0.989
98 | O=C(C1CCOCC1)N1CCCC1c1cncc(CN2CCCC2)n1 (stereo not drawn) | -0.0308
99 | O=C(Nc1nccs1)NC1CCN(Cc2ccccc2)C1 (stereo not drawn) | -8.23
100 | Cc1nc(N[C@H]2COC[C@@H]2N2CCCCC2)c2c(C)nn(C)c2n1 | -4.88
101 | Cn1cnnc1S(=O)(=O)C1CCN(S(=O)(=O)c2ccc(F)c(Cl)c2)CC1 | -5.73
102 | CCc1c(C)nn2c(O)cc(C3CCN(C(=O)c4ccccn4)C3)nc12 (stereo not drawn) | -2.35
103 | O=C1CC(c2ccccc2)C2(CCN(Cc3ccncc3)CC2)N1 (stereo not drawn) | -12.7
104 | Cn1cccc1C(=O)NCc1cn2c(n1)CN(C(=O)c1ccsc1)CC2 | -8.13
105 | Cc1cnccc1N1CCN(c2nccc(CCC(F)(F)F)n2)CC1 | -9.06
106 | Cc1ccc(C)c(CC(=O)Nc2cccc(C(=O)N(C)C)n2)c1 | 5.58
107 | CCc1ccc(C(=O)NCC2CCCN2CC)o1 (stereo not drawn) | -3.5
108 | CC(C)COc1ccccc1C(N)CC(C)C (stereo not drawn) | -10.1
109 | CC1(C(=O)N2CCOCC2)CNCCO1 (stereo not drawn) | -7.18
110 | CCn1cnnc1CNC(=O)N1CCN(c2ccccc2OC)CC1 | -9.83
111 | CCNc1cc2c(nn1)CCN(C(=O)c1ccoc1)C2 | -11.9
112 | CCN1CCN(C(=O)c2ccn(C)c(=O)c2)CC1 | 32.5
113 | CCCc1nnc(NCCc2noc(C3CCC3)n2)o1 | -10.7

Source: ChEMBL document CHEMBL3507680, “University of Dundee, Gates Library screen for HepG2 cell viability”
